# Data from US12528790B2, “Amide derivative having antiviral activity” (Shionogi & Co., Ltd., priority 2020, dated 2026).
# Assays:
# [1] = test system: RSV B (Wash/18537 strain); experiment: In vitro CPE (CytoPathic Effect) inhibition effect evaluation test, RSV type B; format: cell-based; conditions: human respiratory syncytial virus, inhibitory effect against RSV type B, CPE inhibition; read-out: EC50
# Procedure, shortened: (§1)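 EC50 is the concentration giving 50% inhibition of virus-induced cytopathic effect, fitted by nonlinear regression from CellTiter-Glo 2.0 viability. Compounds in 3-fold series were co-incubated at 37 °C with HEp-2 cells and RSV: A2 strain for 4 days, B (Wash/18537) for 5 days; uninfected wells served as control.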
# RSV A2 strain = experiment: In vitro CPE (CytoPathic Effect) inhibition effect evaluation test, RSV type A; format: cell-based; conditions: human respiratory syncytial virus; inhibitory effect against RSV type A (RSV A2 strain), HEp-2 cells, CPE inhibition; read-out: EC50
# Procedure, shortened: as §1
Structure (SMILES),EC50 [1],EC50 (RSV A2 strain)
CC(F)(F)c1nc(N2CC3(CCOCC3)c3cc(OC4CCN(CC(F)(F)F)CC4)ncc32)ncc1C(=O)N[C@]1(C(=O)O)[C@@H]2CC3C[C@H]1C[C@@](F)(C3)C2 [Compound I-605],< 0.01 µM,< 0.01 µM
O=C(NC1(C(=O)O)C2CC3CC(C2)CC1C3)c1cnc(N2CC3(CCCCC3)c3cc(-n4ncc5c4CCN(CC(F)(F)F)C5)ccc32)nc1C(F)(F)F (stereo not drawn) [Compound I-606],< 0.01 µM,< 0.01 µM
CC(F)(F)c1nc(N2CC3(CCCCC3)c3cc(-n4ncc5c4CCN(CC(F)(F)F)C5)ccc32)ncc1C(=O)NC1(C(=O)O)C2CC3CC(C2)CC1C3 (stereo not drawn) [Compound I-607],< 0.01 µM,< 0.01 µM
CC(F)(F)c1nc(N2CC3(CCCCC3)c3cc(C(=O)N4CCN(CC(F)(F)F)CC4)ccc32)ncc1C(=O)NC1(C(=O)O)C2CC3CC(C2)CC1C3 (stereo not drawn) [Compound I-608],< 0.01 µM,< 0.01 µM
COC1CCN(C(=O)c2ccc3c(c2)C2(CCCCC2)CN3c2ncc(C(=O)NC3(C(=O)O)C4CC5CC(C4)CC3C5)c(C(C)(F)F)n2)CC1 (stereo not drawn) [Compound I-609],< 0.01 µM,< 0.01 µM
CC(F)(F)c1nc(N2CC3(CCCCC3)c3cc(C(=O)N4CCC(C(F)F)CC4)ccc32)ncc1C(=O)NC1(C(=O)O)C2CC3CC(C2)CC1C3 (stereo not drawn) [Compound I-610],< 0.01 µM,< 0.01 µM
CC(F)(F)c1nc(-c2cn(C3CCC(F)(F)CC3)c3cc(O[C@H]4CC[C@H](N5CC(F)(F)C5)CC4)ccc23)ncc1C(=O)N[C@]1(C(=O)O)[C@@H]2CC3C[C@H]1C[C@@](F)(C3)C2 [Compound I-611],< 0.01 µM,< 0.01 µM
CC(F)(F)CN1CCC(Oc2ccc3c(-c4ncc(C(=O)NC5(C(=O)O)C6CC7CC(C6)CC5C7)c(C(C)(F)F)n4)cn(C4CCOCC4)c3c2)CC1 (stereo not drawn) [Compound I-612],< 0.01 µM,< 0.01 µM
CC[C@@H](C)n1cc(-c2ncc(C(=O)NC3(C(=O)O)C4CC5CC(C4)CC3C5)c(C(F)(F)F)n2)c2ccc(O[C@H]3CC[C@H](N4CC(F)(F)C4)CC3)cc21 (stereo partly drawn) [Compound I-613],< 0.01 µM,< 0.01 µM
O=C(NC1(C(=O)O)C2CC3CC(C2)CC1C3)c1cnc(-c2cn(C3CCOCC3)c3cc(O[C@H]4CC[C@@H](N5CC(F)(F)C5)CC4)ccc23)nc1C(F)(F)F (stereo partly drawn) [Compound I-614],< 0.01 µM,< 0.01 µM
COCC(C)n1cc(-c2ncc(C(=O)NC3(C(=O)O)C4CC5CC(C4)CC3C5)c(C(C)(F)F)n2)c2ccc(OC3CCN(CC(C)(F)F)CC3)cc21 (stereo not drawn) [Compound I-615],< 0.01 µM,< 0.01 µM
CC(C)n1cc(-c2ncc(C(=O)NC3(C(=O)O)C4CC5CC(C4)CC3C5)c(C(F)(F)F)n2)c2ccc(O[C@H]3CC[C@H](N4CC(F)(F)C4)CC3)cc21 (stereo partly drawn) [Compound I-616],< 0.01 µM,< 0.01 µM
CCC(C)n1cc(-c2ncc(C(=O)NC3(C(=O)O)C4CC5CC(C4)CC3C5)c(C(F)(F)F)n2)c2ccc(O[C@H]3CC[C@H](N4CC(F)(F)C4)CC3)cc21 (stereo partly drawn) [Compound I-617],< 0.01 µM,< 0.01 µM
CC(C)n1cc(-c2ncc(C(=O)NC3(C(=O)O)C4CC5CC(C4)CC3C5)c(C(C)(F)F)n2)c2ccc(O[C@H]3CC[C@H](N4CC(F)(F)C4)CC3)cc21 (stereo partly drawn) [Compound I-618],< 0.01 µM,< 0.01 µM
COC[C@@H](C)n1cc(-c2ncc(C(=O)NC3(C(=O)O)C4CC5CC(C4)CC3C5)c(C(C)(F)F)n2)c2ccc(OC3CC(N4CC(F)(F)C4)C3)cc21 (stereo partly drawn) [Compound I-620],< 0.01 µM,< 0.01 µM
